Patent publication US7820379B2, “Process for high throughput screening of CpG-based immuno-agonist/antagonist” (Coley Pharmaceutical GmbH, priority 2000, dated 2010)

target: T1, murine TLR9 (Mus musculus, UniProt Q9EQU3, L378S/Q579H/T325N/T573A/T867A); test: NF-κB-luciferase activation in 293 cells transfected with murine TLR9 (293-mTLR9-luc); type: cell-based; details: CpG-ODN 1668 compared with CpG-ODN 2006
T1 construct: additional primers were designed for amplification of the complete mouse TLR9 cDNA; expressed in transfected cells
T1 sequence (Q9EQU3 26-1032 T325N/L378S/T573A/Q579H/T867A): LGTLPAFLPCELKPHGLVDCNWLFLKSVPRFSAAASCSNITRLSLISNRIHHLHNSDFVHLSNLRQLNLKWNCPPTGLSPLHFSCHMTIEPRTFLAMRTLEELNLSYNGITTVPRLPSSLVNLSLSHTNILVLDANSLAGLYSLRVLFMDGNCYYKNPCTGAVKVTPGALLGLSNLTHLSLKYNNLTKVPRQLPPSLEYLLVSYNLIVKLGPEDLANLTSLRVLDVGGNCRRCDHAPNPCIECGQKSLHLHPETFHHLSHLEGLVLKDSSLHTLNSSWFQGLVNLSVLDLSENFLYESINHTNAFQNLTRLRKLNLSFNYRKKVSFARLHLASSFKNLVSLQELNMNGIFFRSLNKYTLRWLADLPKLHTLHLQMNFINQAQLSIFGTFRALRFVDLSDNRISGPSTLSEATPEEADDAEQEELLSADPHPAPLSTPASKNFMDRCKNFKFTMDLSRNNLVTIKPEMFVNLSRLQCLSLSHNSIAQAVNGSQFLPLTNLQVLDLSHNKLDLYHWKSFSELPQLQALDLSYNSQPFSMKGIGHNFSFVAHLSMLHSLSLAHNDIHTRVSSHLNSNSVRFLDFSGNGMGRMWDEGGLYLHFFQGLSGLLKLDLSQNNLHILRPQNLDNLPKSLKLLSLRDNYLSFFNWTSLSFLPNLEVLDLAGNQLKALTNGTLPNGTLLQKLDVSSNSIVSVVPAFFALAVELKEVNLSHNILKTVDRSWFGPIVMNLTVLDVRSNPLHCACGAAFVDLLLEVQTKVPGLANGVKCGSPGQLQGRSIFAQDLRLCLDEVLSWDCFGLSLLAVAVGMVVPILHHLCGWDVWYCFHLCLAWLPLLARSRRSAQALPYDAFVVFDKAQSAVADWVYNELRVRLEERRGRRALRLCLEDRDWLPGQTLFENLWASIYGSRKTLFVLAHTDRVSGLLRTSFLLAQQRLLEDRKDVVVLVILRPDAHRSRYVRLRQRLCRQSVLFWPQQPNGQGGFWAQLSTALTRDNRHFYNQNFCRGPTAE
Source text: Human fibroblast 293 cells were transiently transfected with mTLR9 and the NF-κB-luc construct (FIG. 2). Similar data was obtained for IL-8 production (not shown). Thus expression of TLR9 (human or mouse) in 293 cells results in a gain of function for CpG-DNA stimulation similar to hTLR4 reconstitution of LPS responses.
To generate stable clones expressing human TLR9, murine TLR9, or either TLR9 with the NF-κB-luc reporter plasmid, 293 cells were transfected in 10 cm plates (2×10^6 cells/plate) with 16 μg of DNA and selected with 0.7 mg/ml G418 (PAA Laboratories GmbH, Cölbe, Germany). The clones were also screened for IL-8 production or NF-κB-luciferase activity after stimulation with ODN. Four different types of clones were generated. • 293-hTLR9-luc: expressing human TLR9 and 6-fold NF-κB-luciferase reporter • 293-mTLR9-luc: expressing murine TLR9 and 6-fold NF-κB-luciferase reporter • 293-hTLR9: expressing human TLR9 • 293-mTLR9: expressing murine TLR9
Similar results were obtained utilizing IL-8 production with the stable clone 293-hTLR9. 293-mTLR9-luc were also stimulated with CpG-ODN (1668, 2 μM; […], SEQ ID NO:84), GpC-ODN (1668-GC, 2 μM; […], SEQ ID NO:85), Me-CpG-ODN (1668 methylated, 2 μM; TCCATGAZGTTCCTGATGCT, Z=5-methylcytidine, SEQ ID NO:207), LPS (100 ng/ml) or media, as measured by monitoring NF-κB activation (FIG. 5). Similar results were obtained utilizing IL-8 production with the stable clone 293-mTLR9. Results are representative of at least two independent experiments. […] These cells can be used for screening of optimal ligands for innate immune responses driven by TLR9 in multiple species.
Because stable TLR9 transfectants mirrored primary cell responsiveness to CpG-DNA (FIGS. 4 and 5), it was hypothesized that stable transfectants could potentially discern species-specific CpG-motifs through TLR9 receptors. Therefore 293-hTLR9-luc (expressing human TLR9 and 6-fold NF-κB-luc reporter), 293-mTLR9-luc (expressing murine TLR9 and 6-fold NF-κB-luc reporter), 293-hTLR9 (expressing human TLR9) and 293-mTLR9 (expressing murine TLR9) clones were tested for CpG-DNA motif responsiveness. […] Depicted are both NF-κB-driven luciferase and IL-8 production as readout. […] After lysis of the cells luciferase can be detected photometrically based on an enzymatic reaction by luciferase which creates photons. IL-8 production was monitored using enzyme-linked immunosorbent assay (ELISA). […] Results shown in FIG. 11 are representative of three independent experiments. Strikingly, CpG-motif sequence specificity was conferred in a species-specific manner by TLR9. Additionally, the half-maximal concentration for either 2006 or 1668 appears nearly the same as those determined on primary cells (compare FIG. 10 and FIG. 11).
Although 2006 and 1668 are discussed in terms of CpG-motif differences, they are very different in several aspects (see Table 5 for comparison). The lengths are different, 24 versus 20 nucleotides, and 2006 has four CG dinucleotides compared to one in 1668. Additional differences are the CG position relative to the 5′ and 3′ ends and also 5′ sequence differences. In order to determine if motif specificity is a quality of the motif and not the global sequence environment, for this experiment several sequences were produced holding these variables constant. As a starting point, the 1668 sequence was modified by converting the central C to T and the distal TG to CG, thereby creating a second CG in the resulting sequence 5000 (SEQ ID NO:130, Table 5). Then point nucleotide changes were made, progressing toward a 2006-like sequence, 5007 (SEQ ID NO:98). The ODN 5002 (SEQ ID NO:132) is most like 1668 with the exception that C's at positions 12 and 19 have been converted to T's. […]

Sequence	murine TLR9 signaling response
TCCATGACGTTCCTGATGCT (listed as DNA, chemistry not fully specified) [ODN 1668]	significantly stronger

same assay, conditions: ODN concentration of half-maximal activation; 293-mTLR9-luc cells, NF-κB-driven luciferase readout, 12 hours; read-out: 293-mTLR9 Kac

Sequence	EC50
TCCATGAGCTTCCTGATGCT (listed as DNA, chemistry not fully specified) [ODN 1668-GC]	> 10000 nM
TCCATGACGTTCTTGACGTT (listed as DNA, chemistry not fully specified) [ODN 5001]	55 nM
TCCATGACGTTCTTGACGCT (listed as DNA, chemistry not fully specified) [ODN 5000]	82 nM
TCCATGTCGTTCTTGATGTT (listed as DNA, chemistry not fully specified) [ODN 5004]	400 nM
TCCATGTCGTTTTTGTTGTT (listed as DNA, chemistry not fully specified) [ODN 5006]	650 nM
TCGTCGTTTTGTCGTTTTGTCGTT [ODN 2006]	> 10000 nM
TCCATGACGTTCCTGATGCT (listed as DNA, chemistry not fully specified) [ODN 1668]	70 nM
TCCATGTCGTTTTTGATGTT (listed as DNA, chemistry not fully specified) [ODN 5005]	2000 nM
TCCATGTCGTTTTTGTCGTT (listed as DNA, chemistry not fully specified) [ODN 5007]	1000 nM
TGCTGCTTTTGTGCTTTTGTGCTT (listed as DNA, chemistry not fully specified) [ODN 2006-GC]	> 10000 nM
